{Cy5.5} = Cy5.5 fluorophore label
Columns and labels:
Type in all cases: cell-based
[1] = tested on: MCF-7 breast cancer cells; experiment: Cell viability / apoptosis in MCF-7; conditions: single siRNA, final concentration 60 nM
Method: (§1) The miRNA triggers were assayed for cytotoxicity and apoptosis induction, using the CCK-8 (Cell Counting Kit-8) (Dojindo, Kumamoto, Japan) according to the manufacturer's instruction. Cells were incubated in 96-well plates (5×10^3 cells/well) at 37° C. for 24 hours under a 5% CO2 atmosphere, followed by transfection. Three days after transfection, the medium was removed. A 10-fold dilution of CCK-8 solution in DMEM was added to the cells which were then incubated at 37° C. for 2 hours. After incubation, absorbance was read at 450 nm on Tecan Infinite M200 pro microplate reader (Mnnedorf, Switzerland).
An siRNA targeting bcl-2, bcl-xL, or mcl-1 was transfected into MCF-7 breast cancer cells and PANC-1 pancreatic cancer cells. By using qRT-PCR, establishment was made of a condition under which the expression of each target gene is decreased by 80% or more (transfection was performed at a concentration of 60 nM with the aid of Lipofectamine). As a negative control, a Luc (Luciferase)-targeting siRNA (siLuc) was used. Under the same condition of decreasing the expression of each target gene by 80% or more, the cells transfected with the siRNAs were measured for apoptosis, and the results are depicted in FIGS. 14a and 14b.
Linear miRNA triggers that could bind to miR-141 or let7f and target bcl-xL or mcl-1 were prepared and transfected alone or in combination into the breast cancer cell line MCF-7 which was then measured for cell viability. Every nucleotide of the triggers and controls was chemically modified with 2′-OMe.
First, MCF-7 was measured for cell viability after treatment with siMCL-1, siBCL-xL, and siBCL-2 (FIG. 48). […] The final concentration of the siRNAs was 60 nM.
Next, examination was made of the apoptosis when two or more genes were regulated together. MCF-7 was measured for cell viability after treatment with siMCL-1+siBCL-xL, siMCL-1+siBCL-2, siBCL-xL+siBCL-2, and siMCL-1+siBCL-xL+siBCL-2 (FIG. 49).
Finally, experiments under all the conditions (individual and simultaneous regulation) were conducted simultaneously so as to compare effects thereof. […]

cleaved PARP = experiment: Western blot of apoptotic marker cleaved PARP; conditions: blood cancer cell line HL-60
Method: miRNA triggers were transfected into cells in the same manner as in Reference Example 4. After 72 hours, the cells were collected using a cell scraper and lysed with a RIPA buffer (NaCl 150 mM, EDTA 5 mM, Tris 50 mM, NP-40 1.0%, sodium deoxycholate 0.5%, SDS 0.1%). The cell lysate was sonicated 15 times, each for 20 sec, with a halt for 30 sec every sonication. Following centrifugation at 5,000 g for 5 min, the supernatant was taken and used to extract proteins therefrom. A total of 30-40 μg of protein sample was separated in 10-15% SDS-PAGE gel and transferred onto a PVDF membrane through a semi-dry blotting system. The membrane was blocked for 1 hour in 5% skimmed milk and incubated for 2 hours with a 1,000-fold dilution of a primary antibody in, 1% skimmed milk. […] The membrane incubated with the secondary antibody was washed three times with 1×PBST for 10 min each wash, and then reacted with Clarity Western ECL Substrate (#1705061, Bio-Rad), after which images were obtained and analyzed using ChemiDoc (Bio-rad, Hercules, USA). […]
The cells transfected with the selected miRNA triggers were measured for protein expression levels of the target Bcl-xL and the apoptotic marker cleaved PARP through western blotting, and the results are depicted in FIG. 32b.

[2] = tested on: breast cancer cell line MDA-MB-453; experiment: Cell viability / apoptosis in MDA-MB-453; conditions: for apoptosis: MDA-MB-453
Method: as §1
(§2) The selected linear miRNA triggers (bcl-xL(1)_22_2222 and bcl-xL(2)_222_222) were transfected into the breast cancer cell line MDA-MB-453 to which miR-222 is not endogenous. Cell viability, and the mRNA and protein expression levels of the target gene (bcl-xL) were measured and the results are depicted in FIGS. 33a to 33c.
The hairpin miRNA triggers prepared above were transfected into MDA-MB-231 and MDA-MB-453 cells which were then measured for cell viability. The results are depicted in FIG. 37.
The MCL-1-222-222 miRNA trigger, which utilizes miR-222 to regulate MCL-1 gene, and the BCL-xL-let7f-let7f miRNA trigger, which utilizes miR-let7f to regulate BCL-xL gene, were administered to MDA-MB-231 and MDA-MB-453.
Next, apoptosis was examined when the two types of miRNA triggers were co-administered to cells. The total concentration of the two triggers was 120 nM, which was the same as for individual miRNAs. The results are depicted in FIG. 47.

[3] = tested on: breast cancer cell line MDA-MB-231; experiment: Cell viability / apoptosis in MDA-MB-231
Method: as §1
The seven linear miRNA triggers prepared above and the positive control siRNA(siBcl-xL) capable of binding to bcL-xL were transfected into the breast cancer cell line MDA-MB-231 in which miR-222 is overexpressed. Cell viability was measured and is depicted in FIG. 32a.
Linear miRNA triggers that could bind to miR-222 and target bcl-xL and mcl-1, respectively, were prepared and transfected alone or in combination into the breast cancer cell line MDA-MB-231. Cell viability was measured and the measurements are depicted in FIG. 34. siRNAs against Mcl-1 and Bcl-xL were used as controls. […]
The hairpin miRNA triggers prepared above were transfected into MDA-MB-231 and MDA-MB-453 cells which were then measured for cell viability. […]

Hela-141 cells = experiment: Cell viability / apoptosis (CCK-8) in Hela-141 cells; conditions: Hela-141 cells (express miR-141)
Method: as §1
(§3) The linear miRNA triggers or siRNAs (siLuc and siMcl-1) prepared above were transfected into Hela, Hela-141, and Hela-200c cells which were then measured for cell viability. The results are depicted in FIG. 15.
The hairpin miRNA triggers prepared above were transfected into Hela and Hela-141 cells which were then assayed for apoptosis. As a control, the siRNA (siMcl-1; Table 14) which can repress the expression of mcl-1 was transfected to Hela and Hela-141 cells and measured for apoptotic activity.

Hela-200c cells = experiment: Cell viability / apoptosis (CCK-8) in Hela-200c cells
Method: as §1, §3

Mcl-1 = experiment: Western blot of Mcl-1 protein in Hela-141 cells; conditions: 5 to 120 nM, compared to the control Luc-141-141
Method: (§4) miRNA triggers were transfected into cells in the same manner as in Reference Example 4. After 72 hours, the cells were collected using a cell scraper and lysed with a RIPA buffer (NaCl 150 mM, EDTA 5 mM, Tris 50 mM, NP-40 1.0%, sodium deoxycholate 0.5%, SDS 0.1%). The cell lysate was sonicated 15 times, each for 20 sec, with a halt for 30 sec every sonication. Following centrifugation at 5,000 g for 5 min, the supernatant was taken and used to extract proteins therefrom. A total of 30-40 μg of protein sample was separated in 10-15% SDS-PAGE gel and transferred onto a PVDF membrane through a semi-dry blotting system. The membrane was blocked for 1 hour in 5% skimmed milk and incubated for 2 hours with a 1,000-fold dilution of a primary antibody in, 1% skimmed milk. […] The membrane incubated with the secondary antibody was washed three times with 1×PBST for 10 min each wash, and then reacted with Clarity Western ECL Substrate (#1705061, Bio-Rad), after which images were obtained and analyzed using ChemiDoc (Bio-rad, Hercules, USA).
A linear miRNA trigger (Mcl-1-141-141; Table 15) that could bind to miR-141 and target mcl-1 was prepared while a linear miRNA trigger (Luc-141-141; Table 9) that could bind to miR-141 and target Luc (luciferase) was used as a control. […] Then, proteins were extracted from the Hela-141 cells and quantitatively analyzed for Mcl-1 protein level by western blotting. […]

[4] = tested on: MOLM-14, MV4-11 and Hela cells; experiment: Fluorescence (IVIS 100) of cells transfected with Cy5.5-labeled trigger; conditions: Lipofectamine
Method: With the aid of Lipofectamine, the linear miRNA trigger (5′-Cy5.5-miR-155-miR-155-PKR-3′) was transfected into the FLT3-ITD mutant AML cell lines MOLM-14 and MV4-11 and the solid cancer cell line Hela. […] Subsequent animal tests were performed with the trigger.

BCL-xL mRNA = experiment: bcl-xL mRNA expression / gene regulation efficiency; conditions: MDA-MB-453
Method: In the same manner as in Reference Example 4, miRNA triggers were transfected into cells. After 48 hours, total RNA was extracted using TRIzol (Thermo Fisher Scientific) according to the manufacturer's instruction. The purified RNA was treated with DNase I and then reverse transcribed in the presence of RevertAid reverse transcriptase (Thermo Fisher Scientific), with random hexamers (Thermo Fisher Scientific) serving as primers. For use in amplification of target genes, primers for target genes were added, together with the cDNA, to the SYBR Green PCR master mix (Thermo Fisher Scientific). RT-qPCR was conducted on a StepOnePlus real-time PCR system. Cq values obtained from this analysis was quantitatively analyzed based on the 2^−ΔΔC(t) method.
as §2
After treatment with miRNA triggers, mRNA expression levels of the target gene BCL-xL were measured. […]

Bcl-xL = experiment: Western blot of Bcl-xL protein; conditions: MDA-MB-453
Method: as §4
The cells transfected with the selected miRNA triggers were measured for protein expression levels of the target Bcl-xL and the apoptotic marker cleaved PARP through western blotting, and the results are depicted in FIG. 32b. […]

With “siBcl-2: siRNA targeting bcl-2; SEQ ID NO 62 (AUCAAUCUUCAGCACUCUC; listed as RNA, chemistry not given here)” as the molecule, how does the “apoptosis (cell viability)” value [1] read?
The value was “apoptosis was detected”.

What about the “expression of the apoptotic marker cleaved PARP” value (cleaved PARP) of the same molecule?
Its value is “upregulated”.

Which results are given for “MCL-1-let7f-let7f: linear miRNA trigger designed to knock down MCL-1 by using miR-let7f; SEQ ID NO 113 (AACUAUACAAUGAACUACCUCAAACUAUACAAUGAACUACCUCACCGAACUACGUAGC; all 2'-O-methyl, backbone not given here)”?
apoptosis ([2]; Example 13): none of the two cell lines were induced to undergo apoptosis; apoptosis ([3]; Examples 12-13): none of the two cell lines were induced to undergo apoptosis

How did the apoptosis ([2]; 120 nM (total)) turn out when “MCL-1-222-222: linear miRNA trigger which utilizes miR-222 to regulate MCL-1 gene; SEQ ID NO 109 (ACCCAGUAGCCAGAUGUAGCUACCCAGUAGCCAGAUGUAGCUCCGAACUACGUAGC; all 2'-O-methyl, backbone not given here)” was run?
The apoptosis was “did not induce apoptosis”.

What about the apoptosis ([3]; 120 nM (total)) of the same molecule?
The apoptosis was “no apoptosis was observed”.

“Mcl-1-141-141: linear miRNA trigger binding miR-141 and targeting mcl-1; SEQ ID NO 65 (Table 25: 110) (CCAUCUUUACCUCACAGUGUUACCAUCUUUACCUCACAGUGUUACCGAACUACGUAGC; all 2'-O-methyl, backbone not given here)” was tested. Which apoptosis induced (Hela-141 cells) did it give?
The apoptosis induced was “up to 40%”.

What about the “apoptosis / cell viability” value (Hela-200c cells) of the same molecule?
Its value is “no significant influence on cell viability”.

And the Mcl-1 protein level (Mcl-1)?
The Mcl-1 protein level was “significantly decreased in Mcl-1 protein level”.

B1: 5′-Cy5.5-miR-155-miR-155-PKR-3′: linear miRNA trigger binding miR-155, targeting PKR, labeled with Cy5.5 fluorophore; SEQ ID NO 69 (conjugate)
chain: UUAUGUUUCAGGUUCAGGGGGAUUAUGUUUCCAGGUUCAGGGGGAUAUGUGAGGCAGAGAACGA
modifications: all 2'-O-methyl, 5' {Cy5.5}, backbone not given here
For B1, which “Cy5.5 fluorescence of transfected cells” value [4] is on record?
The value was “Fluorescence was detected”.

B2: bcl-xL(1)_222_222: linear miRNA trigger binding miR-222 and knocking down bcl-xL; SEQ ID NO 106 (nucleic acid)
chain: ACCCAGUAGCCAGAUGUAGCUACCCAGUAGCCAGAUGUAGCUUCUCCUUCCUGCCCUUCCU
modifications: all 2'-O-methyl, backbone not given here
B2 was tested. Which “mRNA expression level of target bcl-xL” value (BCL-xL mRNA) did it give?
The value was “did not significantly change”.

And the “protein expression level of target bcl-xL” value (Bcl-xL)?
Its value is “did not significantly change”.

And the cell viability ([2]; MDA-MB-453 (does not express miR-222))?
The cell viability was “did not significantly change”.
